The assay deals with ER-alpha MCF7. In words: ER-alpha MCF7 HCS EC50; stated as measured by in vitro cell proliferation assays of Examples 902 and 903. The conditions noted are these: Homo sapiens, MCF7, MCF7 cells; Table 2. It is filed as cell-based. The text has this: The CellTiter-Glo® Luminescent Cell Viability Assay is a homogeneous method to determine the number of viable cells in culture based on quantitation of the ATP present, which signals the presence of metabolically active cells. The CellTiter-Glo® Assay is designed for use with multiwell plate formats, making it ideal for automated high-throughput screening (HTS), cell proliferation and cytotoxicity assays. The homogeneous assay procedure involves adding a single reagent (CellTiter-Glo® Reagent) directly to cells cultured in serum-supplemented medium. Cell washing, removal of medium or multiple pipetting steps are not required. The Cell Titer-Glo® Luminescent Cell Viability Assay, including reagents and protocol are commercially available (Promega Corp., Madison, WI, Technical Bulletin TB288).
The assay assesses the ability of compounds to enter cells and inhibit cell proliferation. The assay principle is based on the determination of the number of viable cells present by quantitating the ATP present in a homogenous assay where addition of the Cell Titer-Glo® reagent results in cell lysis and generation of a luminescent signal through the luciferase reaction. The luminescent signal is proportional to the amount of ATP present.
Cell Culture Medium: RPMI or DMEM high glucose, 10% Fetal Bovine Serum, 2 mM L-Glutamine, P/S. Incubate O/N (overnight) at 37° C., 5% CO2.
Day 2—Add Drug to Cells, Compound Dilution, DMSO Plates (serial 1:2 for 9 points). Add 20 μl of compound at 10 mM in the 2nd column of 96 well plate. […] Add 147 μl of Media into all wells. Transfer 3 μl of DMSO+ compound from each well in the DMSO Plate to each corresponding well on Media Plate using Rapidplate® (Caliper, a Perkin-Elmer Co.). For 2 drug combination studies, transfer one drug 1.5 μl of DMSO+ compound from each well in the DMSO Plate to each corresponding well on Media Plate using Rapidplate. Then, transfer another drug 1.5 μl to the medium plate.
Drug Addition to Cells, Cell Plate (1:10 dilution): Add 6 μl of media+ compound directly to cells (54 μl of media on the cells already). Incubate 3 days at 37° C., 5% CO2 in an incubator that will not be opened often.
Day 5—Develop Plates, Thaw Cell Titer Glo Buffer at room temperature: Remove Cell Plates from 37° C. and equilibrate to room temperature for about 30 minutes. Add Cell Titer-Glo® Buffer to Cell Titer-Glo® Substrate (bottle to bottle). Add 30 μl Cell Titer-Glo® Reagent (Promega cat. #G7572) to each well of cells. Place on plate shaker for about 30 minutes. Read luminescence on Analyst HT Plate Reader (half second per well).
Cell viability assays and combination assays: Cells were seeded at 1000-2000 cells/well in 384-well plates for 16 h. On day two, nine serial 1:2 compound dilutions were made in DMSO in a 96 well plate. The compounds were further diluted into growth media using a Rapidplate® robot (Zymark Corp., Hopkinton, MA). The diluted compounds were then added to quadruplicate wells in 384-well cell plates and incubated at 37° C. and 5% CO2. After 4 days, relative numbers of viable cells were measured by luminescence using Cell Titer-Glo® (Promega) according to the manufacturer's instructions and read on a Wallac Multilabel Reader® (PerkinElmer, Foster City). EC50 values were calculated using Prism® 4.0 software (GraphPad, San Diego).
5 ul of each individual compound concentration and each control compound was transferred to the cell plate. Fulvestrant was added to control wells at a final concentration of 100 nM). DMSO was added to negative control wells (0.2% v/v).

Consider 19 compounds from patent publication US20250114338A1, “TETRAHYDRO-PYRIDO[3,4-b]INDOLE ESTROGEN RECEPTOR MODULATORS AND USES THEREOF” (Genentech, Inc., priority 2014, published 2025).

For orientation: EC50 means the concentration that produces a half-maximal response.

In the case of `CCCCCN1CC(Oc2cc(F)c([C@@H]3c4[nH]c5ccccc5c4C[C@@H](C)N3CC(C)(C)F)c(F)c2)C1` [Example 163, (1R,3R)-1-[2,6-difluoro-4-(1-pentylazetidin-3-yl)oxy-phenyl]-2-(2-fluoro-2-methyl-propyl)-3-methyl-1,3,4,9-tetrahydropyrido[3,4-b]indole], the EC50 was determined as 0.457 nM.

For `C[C@@H]1Cc2c([nH]c3ccccc23)[C@@H](c2c(F)cc(OC3CN(CC4CC4)C3)cc2F)N1CC(C)(C)F` [Example 164, (1R,3R)-1-[4-[1-(cyclopropylmethyl)azetidin-3-yl]oxy-2,6-difluoro-phenyl]-2-(2-fluoro-2-methyl-propyl)-3-methyl-1,3,4,9-tetrahydropyrido[3,4-b]indole], the EC50 turned out to be 0.216 nM.

`C[C@@H]1Cc2c([nH]c3ccccc23)[C@@H](c2c(F)cc(OC3CN(CC4CCCC4)C3)cc2F)N1CC(C)(C)F` [Example 165, (1R,3R)-1-[4-[1-(cyclopentylmethyl)azetidin-3-yl]oxy-2,6-difluoro-phenyl]-2-(2-fluoro-2-methyl-propyl)-3-methyl-1,3,4,9-tetrahydropyrido[3,4-b]indole]: the EC50 came to 2 nM.

Consider `C[C@@H]1Cc2c([nH]c3ccccc23)[C@@H](c2c(F)cc(OC3CN(CCF)C3)cc2F)N1CC(C)(C)F` [Example 166, (1R,3R)-1-[2,6-difluoro-4-[1-(2-fluoroethyl)azetidin-3-yl]oxy-phenyl]-2-(2-fluoro-2-methyl-propyl)-3-methyl-1,3,4,9-tetrahydropyrido[3,4-b]indole], for which the 50% effective concentration (EC50) came to 0.175 nM.

In the case of `C#CCN1CC(Oc2cc(F)c([C@@H]3c4[nH]c5ccccc5c4C[C@@H](C)N3CC(C)(C)F)c(F)c2)C1` [Example 167, (1R,3R)-1-[2,6-difluoro-4-(1-prop-2-ynylazetidin-3-yl)oxy-phenyl]-2-(2-fluoro-2-methyl-propyl)-3-methyl-1,3,4,9-tetrahydropyrido[3,4-b]indole], the 50% effective concentration (EC50) was 0.083 nM.

Regarding `CC(C)N1CC(Oc2cc(F)c([C@@H]3c4[nH]c5ccccc5c4C[C@@H](C)N3CC(C)(C)F)c(F)c2)C1` [Example 168, (1R,3R)-1-[2,6-difluoro-4-(1-isopropylazetidin-3-yl)oxy-phenyl]-2-(2-fluoro-2-methyl-propyl)-3-methyl-1,3,4,9-tetrahydropyrido[3,4-b]indole], the EC50 amounted to 0.122 nM.

For `CC(C)CN1CC(Oc2cc(F)c([C@@H]3c4[nH]c5ccccc5c4C[C@@H](C)N3CC(C)(C)F)c(F)c2)C1` [Example 169, (1R,3R)-1-[2,6-difluoro-4-(1-isobutylazetidin-3-yl)oxy-phenyl]-2-(2-fluoro-2-methyl-propyl)-3-methyl-1,3,4,9-tetrahydropyrido[3,4-b]indole], the EC50 was determined as 0.409 nM.

Turning to `C[C@@H]1Cc2c([nH]c3ccccc23)[C@@H](c2c(F)cc(OC3CN(C(=O)OC(C)(C)C)C3)cc2F)N1CC(C)(C)F` [Example 170, tert-butyl 3-[3,5-difluoro-4-[(1R,3R)-2-(2-fluoro-2-methyl-propyl)-3-methyl-1,3,4,9-tetrahydropyrido[3,4-b]indol-1-yl]phenoxy]azetidine-1-carboxylate], the EC50 came out at 1 nM.

With `CC[C@@H]1Cc2c([nH]c3ccccc23)[C@@H](c2c(F)cc(OCCN3CC(CF)C3)cc2F)N1CC(C)(C)F` [Example 171, (1R,3R)-1-(2,6-difluoro-4-(2-(3-(fluoromethyl)azetidin-1-yl)ethoxy)phenyl)-3-ethyl-2-(2-fluoro-2-methylpropyl)-2,3,4,9-tetrahydro-1H-pyrido[3,4-b]indole], the concentration giving a half-maximal response (EC50) worked out at 0.471 nM.

Turning to `CC[C@H]1Cc2c([nH]c3ccccc23)[C@@H](c2c(F)cc(OCCN3CC(CF)C3)cc2F)N1CC(C)(C)F` [Example 172, (1R,3S)-1-(2,6-difluoro-4-(2-(3-(fluoromethyl)azetidin-1-yl)ethoxy)phenyl)-3-ethyl-2-(2-fluoro-2-methylpropyl)-2,3,4,9-tetrahydro-1H-pyrido[3,4-b]indole], the EC50 came to 17 nM.

On to `C[C@@H]1Cc2c([nH]c3ccccc23)[C@@H](c2c(F)cc(OCCN3CC(CF)C3)cc2F)N1CC1(C)CCC1` [Example 173, (1R,3R)-1-[2,6-difluoro-4-[2-[3-(fluoromethyl)azetidin-1-yl]ethoxy]phenyl]-3-methyl-2-[(1-methylcyclobutyl)methyl]-1,3,4,9-tetrahydropyrido[3,4-b]indole], for which the EC50 is 1 nM.

With `C[C@@H]1Cc2c([nH]c3ccccc23)[C@@H](c2c(F)cc(OCCN3CC(CF)C3)cc2F)N1CC(F)(F)F` [Example 174, (1R,3R)-1-[2,6-difluoro-4-[2-[3-(fluoromethyl)azetidin-1-yl]ethoxy]phenyl]-3-methyl-2-(2,2,2-trifluoroethyl)-1,3,4,9-tetrahydropyrido[3,4-b]indole], the EC50 came out at 0.285 nM.

For the compound `C[C@@H]1Cc2c([nH]c3ccccc23)[C@H](c2c(F)cc(OCCN3CC(CF)C3)cc2F)N1CC(F)(F)F` [Example 175, (1S,3R)-1-[2,6-difluoro-4-[2-[3-(fluoromethyl)azetidin-1-yl]ethoxy]phenyl]-3-methyl-2-(2,2,2-trifluoroethyl)-1,3,4,9-tetrahydropyrido[3,4-b]indole], the EC50 is 14 nM.

Regarding `COC(CCN1CC(Oc2cc(F)c([C@@H]3c4[nH]c5ccccc5c4C[C@@H](C)N3CC(C)(C)F)c(F)c2)C1)OC` [Example 176, (1R,3R)-1-[4-[1-(3,3-dimethoxypropyl)azetidin-3-yl]oxy-2,6-difluoro-phenyl]-2-(2-fluoro-2-methyl-propyl)-3-methyl-1,3,4,9-tetrahydropyrido[3,4-b]indole], the concentration giving a half-maximal response (EC50) is 0.031 nM.

In the case of `C[C@@H]1Cc2c([nH]c3ccccc23)[C@@H](c2ccc(OC3CN(CCCF)C3)cc2F)N1CC(C)(C)F` [Example 177, (1R,3R)-1-[2-fluoro-4-[1-(3-fluoropropyl)azetidin-3-yl]oxy-phenyl]-2-(2-fluoro-2-methyl-propyl)-3-methyl-1,3,4,9-tetrahydropyrido[3,4-b]indole], the EC50 amounted to 0.164 nM.

As to `CC(C)(F)CN1CCc2c([nH]c3ccccc23)C1c1c(F)cc(OCCN2CC(CF)C2)cc1F` (stereo not shown) [Example 178, 1-[2,6-difluoro-4-[2-[3-(fluoromethyl)azetidin-1-yl]ethoxy]phenyl]-2-(2-fluoro-2-methyl-propyl)-1,3,4,9-tetrahydropyrido[3,4-b]indole], the EC50 stood at 0.5 nM.

Consider `C[C@@H]1Cc2c([nH]c3ccccc23)[C@H](c2ccc(OCCN3CC(CF)C3)cc2)N1S(C)(=O)=O` [Example 179, (1S,3R)-1-[4-[2-[3-(fluoromethyl)azetidin-1-yl]ethoxy]phenyl]-3-methyl-2-methylsulfonyl-1,3,4,9-tetrahydropyrido[3,4-b]indole], for which the concentration for a half-maximal effect (EC50) stood at 13 nM.

`C[C@@H]1Cc2c([nH]c3ccccc23)[C@@H](c2ccc(OCCN3CC(CF)C3)cc2)N1S(C)(=O)=O` [Example 180, (1R,3R)-1-(4-(2-(3-(fluoromethyl)azetidin-1-yl)ethoxy)phenyl)-3-methyl-2-(methylsulfonyl)-2,3,4,9-tetrahydro-1H-pyrido[3,4-b]indole]: the EC50 came to 0.222 nM.

For the compound `CC(CO)C(=O)N1[C@H](c2c(F)cc(OCCN3CC(CF)C3)cc2F)c2[nH]c3ccccc3c2C[C@H]1C` (stereo partly drawn) [Example 181, 1-((1R,3R)-1-(2,6-difluoro-4-(2-(3-(fluoromethyl)azetidin-1-yl)ethoxy)phenyl)-3-methyl-3,4-dihydro-1H-pyrido[3,4-b]indol-2(9H)-yl)-3-hydroxy-2-methylpropan-1-one], the half-maximal effective concentration (EC50) came to 4 nM.
